Assay results: patent US20240180891A1, “SYNERGISTIC MODULATORS OF ALPHA-DICARBONYL DETOXIFICATION AND THEIR USE FOR INDUCING WEIGHT LOSS AND THE TREATMENT OF DIABETIC PATHOLOGIES” (Buck Institute for Research on Aging, priority 2020, published 2024)

Assays:
C. elegans = conditions: feeding of AGE, data not shown
Source text: MGO-derived AGEs have been found in proteins with aging and in age-related diseases (see, e.g., Li et al. (2012) J. Neurol. Sci. 317: 1-5; Cone (2005) Nat. Neurosci. 8: 571-578; Mitchell et al. (2017) Oncotarget, 8: 17453-17474; Li et al. (2012) Neurobiol. Aging 33: 1400-1410). […] To investigate the impact of specific AGEs, we provided synthesized individual AGEs and examined their biological effects. We adapted published procedures to synthesize four AGEs on a gram scale: carboxymethyl-lysine (CML), carboxyethyl-lysine (CEL), fructose-lysine (F-Ly), and methylglyoxal-derived hydroimidazolone MG-H1. CEL and MG-H1 are MGO derived AGEs while CML is glyoxal derived, and F-LY is glucose derived.

C57BL/6 mice = tested on: C57BL/6 mice
Protocol: Percent weight increases indicate the percent change from starting body weights to the weights at the end of the two-week diet. Daily food consumption was measured twice weekly.
Next, we tested if MG-H1, which is detectable in human CSF and serum (Monnier et al. (2005) Ann. N. Y. Acad. Sci. 1043: 567-581), influences feeding in mice. We gave 12 week-old WT mice 100 μM or 200 μM MG-H1 via supplementation of drinking water for two weeks.

C. elegans glod-4 mutant = C. elegans glod-4 mutant screen of natural product library for compounds mitigating MGO toxicity; format: in vivo; conditions: C. elegans and mammalian neuronal cells; Tim Tec NPL-640 library
Source text: (§1) We used C. elegans to screen for compounds that mitigate the detrimental phenotypes in the worm glod-4 mutant. […] This included alpha-lipoic acid (ALA), a drug already prescribed for diabetic neuropathy in certain countries (see, e.g., Giacco et al. (2014) Diabetes 63: 291-299).

[1] = recent human trial (Bierhaus et al.); cited from earlier work
[2] = target: T1, transient receptor potential cation channel (TRPA1) (Caenorhabditis elegans, UniProt Q18297); test: ALA mechanism: TRPA1 activation and glyoxalase expression; set-up: species or system C. elegans
T1 sequence (Q18297 1-1211): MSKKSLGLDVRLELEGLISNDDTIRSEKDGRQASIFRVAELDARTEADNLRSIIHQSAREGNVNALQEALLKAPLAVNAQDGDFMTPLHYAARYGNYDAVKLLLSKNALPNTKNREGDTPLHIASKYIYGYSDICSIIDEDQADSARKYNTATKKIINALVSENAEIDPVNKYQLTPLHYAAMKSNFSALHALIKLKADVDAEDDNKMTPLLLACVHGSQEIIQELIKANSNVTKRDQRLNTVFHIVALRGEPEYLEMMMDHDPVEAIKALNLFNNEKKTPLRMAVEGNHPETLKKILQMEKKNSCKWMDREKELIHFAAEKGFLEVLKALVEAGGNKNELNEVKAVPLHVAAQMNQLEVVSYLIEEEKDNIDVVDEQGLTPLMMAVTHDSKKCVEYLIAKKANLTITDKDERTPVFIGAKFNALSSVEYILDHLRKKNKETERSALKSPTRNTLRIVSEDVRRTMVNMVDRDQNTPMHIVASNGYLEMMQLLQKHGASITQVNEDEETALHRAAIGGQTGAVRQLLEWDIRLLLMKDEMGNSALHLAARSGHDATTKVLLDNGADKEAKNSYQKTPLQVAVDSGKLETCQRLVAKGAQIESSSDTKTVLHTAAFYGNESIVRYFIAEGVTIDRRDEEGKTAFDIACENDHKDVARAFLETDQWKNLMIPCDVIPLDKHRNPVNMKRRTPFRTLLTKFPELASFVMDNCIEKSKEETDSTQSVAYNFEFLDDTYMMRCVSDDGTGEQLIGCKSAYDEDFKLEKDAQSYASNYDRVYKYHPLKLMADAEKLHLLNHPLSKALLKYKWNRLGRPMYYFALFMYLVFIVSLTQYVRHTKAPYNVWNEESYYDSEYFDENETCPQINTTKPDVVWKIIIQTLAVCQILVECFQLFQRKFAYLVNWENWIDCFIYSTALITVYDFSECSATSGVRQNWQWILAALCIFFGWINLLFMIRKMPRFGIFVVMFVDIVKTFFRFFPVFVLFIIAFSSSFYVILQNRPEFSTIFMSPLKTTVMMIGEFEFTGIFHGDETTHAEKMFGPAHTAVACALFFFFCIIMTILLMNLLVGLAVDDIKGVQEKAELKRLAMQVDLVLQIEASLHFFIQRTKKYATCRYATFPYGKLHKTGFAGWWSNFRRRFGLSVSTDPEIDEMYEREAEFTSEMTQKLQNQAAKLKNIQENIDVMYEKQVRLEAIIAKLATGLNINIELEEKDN
Source text: FIG. 4 illustrates a proposed model for how MGO is sensed by TRPA1 to activate SKN-1/Nrf2 and mediate detoxification of MGO through downstream glyoxalases in worms and mammals. MGO is sensed by TRPA-1 leading to the activation of SKN-1/Nrf2 pathway. This in turn activates downstream glyoxalases GLO1 and DJ1 (Id.).
as §1

[3] = single compounds; cited from earlier work
[4] = higher dose (200 μM) in drinking water, two weeks

SMILES | food intake (C. elegans) | triglyceride content (C. elegans) | hourly food intake (C57BL/6 mice; data not shown) | water intake (C57BL/6 mice; data not shown) | energy expenditure (C57BL/6 mice; higher dose) | oxygen consumption (C57BL/6 mice; higher dose) | body weights (C57BL/6 mice; [4]) | food intake (C57BL/6 mice; [4]) | amelioration of deleterious effects of MGO toxicity (C. elegans glod-4 mutant) | weight [1] | TRPA1 activation [2] | expression of glyoxalases (DJ1 and GLO1) [2] | protection against obesity [3]
CC1NC(NCCC[C@H](N)C(=O)O)=NC1=O (some centres unmarked) [MG-H1, hydroimidazolone Nδ-(5-hydro-5-methyl-4-imidazolon-2-yl) ornithine] | enhances food intake | increases triglyceride content | increase in hourly food intake | relatively similar water intake | reactive increase | reactive increase | significant increase | significant increase | – | – | – | – | –
O=C(O)CCCCC1CCSS1 (stereo not drawn) [alpha-lipoic acid, 1,2-dithiolane-3-pentanoic acid] | – | – | – | – | – | – | – | – | ameliorate the deleterious effects of MGO toxicity | effectiveness in reducing weight | activates | enhancing the expression | protect against obesity
NC(=O)c1cccnc1 [nicotinamide] | – | – | – | – | – | – | – | – | – | – | – | – | protect against obesity
